Test results published in BigSolDB 2.1.

COP(=O)(NC(C)=O)SC (stereo unspecified)
Conditions	solubility (mole fraction)
in acetone, 299.45 K	0.068
in acetone, 302.6 K	0.0811
in acetone, 305.2 K	0.0923
in acetone, 306.4 K	0.0986
in acetone, 309.8 K	0.119
in acetone, 311.4 K	0.131
in acetone, 313.75 K	0.149
in acetone, 315.8 K	0.167
in dichloromethane, 292.9 K	0.176
in dichloromethane, 295.2 K	0.19
in dichloromethane, 297.3 K	0.203
in dichloromethane, 298.45 K	0.21
in dichloromethane, 299.6 K	0.217
in dichloromethane, 301.05 K	0.226
in dichloromethane, 302.3 K	0.233
in dichloromethane, 303.25 K	0.241
in ethyl acetate, 307.9 K	0.035
in ethyl acetate, 310.75 K	0.0408
in ethyl acetate, 314.2 K	0.049
in ethyl acetate, 318.4 K	0.0648
in ethyl acetate, 321.55 K	0.0779
in ethyl acetate, 324.95 K	0.0965
in ethyl acetate, 327.6 K	0.118
in isopropanol, 299.3 K	0.0606
in isopropanol, 303.95 K	0.0773
in isopropanol, 306.7 K	0.0925
in isopropanol, 310.75 K	0.118
in isopropanol, 313.35 K	0.137
in isopropanol, 316.45 K	0.163
in isopropanol, 319.45 K	0.193
in isopropanol, 322 K	0.224
